Test results from patent US20240239786A1, “COMPOSITIONS AND METHODS FOR THE TREATMENT AND PREVENTION OF CANCER” (Yale University, priority 2021, published 2024).

Legend:
[1] = tested on: PD-L1; experiment: PD-L1 level in BRCA-wild type PEO4 cells; assay type: cell-based
Excerpt: FIG. 21A depicts representative effects of DB4 and/or olaparib on BRCA-wild type PEO4 cells after 24, 48, and 72 hr. FIG. 21B depicts representative effects of DB4 and/or olaparib on the level of DSBs in BRCA-wild type PEO4 cells. FIG. 21C depicts representative effects of DB4 and/or olaparib on the level of PD-L1 protein in BRCA-wild type PEO4 cells.
FIG. 22 depicts representative effects of DB4 and/or olaparib on PD-L1-positive populations of BRCA-mutated PEO1 and BRCA-wild type PEO4 cells. DB4 and/or olaparib increased the PD-L1-positive population of BRCA-wild type PEO4 cells in the presence of IFNγ.

[2] = Chemical stability of DB4: potency after pre-incubation in cell-free medium (EdU readout); assay type: physicochemical; conditions: pre-incubated in cell-free medium at 37° C. up to 72 hr; PEO4 cells
Procedure: DB4 remained mostly active and intact after 72 hr in the culture medium. The dose response curve of DB4 in DNA synthesis inhibition in PEO4 cells was generated as determined by EdU flow cytometric analysis. […] PEO4 cells were treated with these media for 24 hr. The level of DNA synthesis inhibition was determined to interpolate and calculate % DB4 remaining compared with the control at 0 hr. FIG. 5B depicts representative results for remaining DB4 after DB4 (MW=496.1) was added to the culture medium at 50 μM for 0 hr, 24 hr, 48 hr, or 72 hr at 37° C. FIG. 5C depicts representative mass spectrum obtained from mass spectrometry that was run to detect the level of the 496.13 ion at 0 hr. FIG. 5D depicts representative mass spectrum obtained from mass spectrometry that was run to detect the level of the 496.13 ion at 72 hr.
To ensure that DB4 remained chemically stable, the time course study was performed by determining the potency of DB4 following a pre-incubation in the cell-free medium at 37° C. for up to 72 hr. Cells were treated for 24 hr with the medium containing pre-incubated DB4 and DNA synthesis was determined by the EdU incorporation assay.

[3] = tested on: MDA-MB231 breast cancer cells; experiment: Clonogenic assay, MDA-MB231; assay type: cell-based; conditions: DB4 at 3 μM, 14 days
Procedure: Cells were plated for 24 hr, pre-treated with DB4 for 1 hr, and then treated with various concentrations of olaparib for 14 days. Colonies were stained and determined for clonogenic survival.
To further substantiate the effectiveness of DB4 and mitigate the issue of off-target effects with a higher concentration range of drugs used in the MTS cytotoxicity assay, clonogenic assays were carried out to determine the long-term survival of cells in response to treatments.
The assay was conducted as described previously (Lin Z P et al., 2014, Molecular Cancer Res, 12:381-393). Cells were plated at various densities in 6-well plates in triplicate. After 24 hr of incubation, cells were treated continuously with various concentrations of olaparib, DB4, or both drugs in combination. After 12-14 days, colonies were fixed/stained with crystal violet solution and counted to determine the percentage of survival using a GelDoc imaging system with QuantityOne software (Bio-Rad, Hercules, CA).

[4] = tested on: cNHEJ activity; experiment: NHEJ reporter assay in SKOV3-EJ5-GFP cells; assay type: cell-based; conditions: I-SceI-mediated DSBs
Excerpt: Cells were transfected with the ISceI-expressing plasmid and then treated various concentrations of DB4 for 48 hr. Cells were harvested, stained with 7-AAD, and analyzed by flow cytometry for GFP-positive cells indicative of HR repair activity. […] Cells were transfected with the ISceI-expressing plasmid and treated with various concentrations of DB4. Cells were harvested, stained with 7-AAD, and stained, and analyzed by flow cytometry for GFP-positive cells indicative of NHEJ activity. Data are means±SD (N=3). *, p<0.05; **, p<0.01, compared with the 0 μM control of ISceI-transected cells. FIG. 7C depicts representative results of confocal imaging of olaparib-induced nuclear Rad51 foci in SKOV3 cells treated DB4. […] Cells were also scored for nuclei containing equal or more than 10 distinct Rad51 foci to determine the percentage of cells positive for Rad51 foci. […] Protein was assessed by western blot analysis for the levels of γH2AX, p-H1, cyclin A2, p-CDK1/2, and HSC70. […] The band density of γH2AX indicative of DSBs was quantified by densitometry. […]
SKOV3-DR-GFP cells were established as described previously (Lin Z P et al., 2014, Molecular Cancer Res, 12:381-393). […] Cells were then trypsinized, stained with 7-AAD, and analyzed for the percentage of GFP-positive and […] cells by flow cytometry using an LSR II flow cytometer (BD Biosciences) and FlowJo software (Tree Star; Ashland, OR). […]

## C=CCn1c(SCc2cccc(Cl)c2)nnc1C1CCN(Cc2nc3ccccc3s2)CC1 [DB4, 2-[(4-{4-allyl-5-[(3-chlorobenzyl)thio]-4H-1,2,4-triazol-3-yl}-1-piperidinyl)methyl]-1,3-benzothiazole]
[1]; BRCA-wild type EOC cells
  PD-L1 protein level: up-regulation of PD-L1 protein
[1]; PEO4 cells in the presence of IFNγ
  PD-L1-positive population: significantly increased
[2]
  activity to inhibit DNA synthesis after pre-incubation: more than 82%
[3]
  clonogenic survival in the presence of olaparib: effectively reduced the clonogenic survival
[4]
  cNHEJ activity: appeared to enhance the cNHEJ activity induced by I-SceI-mediated DSBs but the increase was not statistically significant
